Laboratory results as given in EP4721737A1, “USE OF PHARMACEUTICAL COMPOSITION COMPRISING COMPOUND HAVING BIS(AZANYLYLIDENE) SULFONYL STRUCTURE FOR TREATING ANEMIA-RELATED DISEASES” (Scinnohub Pharmaceutical Co., Ltd., priority 2023, dated 2024).
Read-outs that look alike come from different tables or passages of the source.

Key:
[1] = biological target: T1, PKR in ex vivo red blood cells from healthy individuals (Homo sapiens, UniProt P30613); assay: ex vivo pyruvate kinase (PKR) activity experiment, red blood cells of healthy individuals; format: cell-based; conditions: 3 hours co-cultivation
T1 construct: endogenous in cells; host or cells: human red blood cells isolated from fresh peripheral blood of healthy individuals
Summary of the method: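 Washed, Percoll-purified human RBCs at 1 × 10^7 cells/mL were exposed to compound (final 1–3000 nM, 1% DMSO) for 3 h at 37°C, then lysed. PKR activity in lysate was followed kinetically by fluorescence at 540/590 nm over 1 h. Slope versus 1% DMSO control gave % activation; AC50 from variable-slope fit.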

[2] = pharmacokinetic properties test in mice; format: in vivo; conditions: ICR mouse, single, plasma; for MRT last: read-out: MRT0-t; for Vd: read-out: Vss
Procedure: The pharmacokinetic properties of the compounds of the present disclosure in different animal species were investigated by measuring plasma drug concentrations following intravenous and oral gavage in mouse, rat, and dog.
i. The compounds were weighed, then the solvent (5% DMSO + 10% Solutol + 85% saline) was added to prepare the administration solution. ii. On the day before the experiment, animals in the oral administration group were fasted overnight (10-14 hours) and fed 4 hours after administration. iii. At each time point after administration, approximately 30 µL of venous blood was collected from an appropriate location in each group of animals and placed in a sodium heparin tube. Blood samples were placed on ice and centrifuged within 1 hour to separate plasma (centrifugation conditions: 6800 g, 6 min, 2-8°C). Plasma samples were stored at -80°C until analysis.
b) An LC-MS/MS analytical method was developed for measuring compound concentrations in mouse, rat, and dog plasma. This method was used to determine compound concentrations in biological samples obtained in this assay.
Pharmacokinetic parameters were calculated using Phoenix WinNonlin 7.0 using plasma drug concentration data at different time points.

T1 sequence (P30613 whole entry): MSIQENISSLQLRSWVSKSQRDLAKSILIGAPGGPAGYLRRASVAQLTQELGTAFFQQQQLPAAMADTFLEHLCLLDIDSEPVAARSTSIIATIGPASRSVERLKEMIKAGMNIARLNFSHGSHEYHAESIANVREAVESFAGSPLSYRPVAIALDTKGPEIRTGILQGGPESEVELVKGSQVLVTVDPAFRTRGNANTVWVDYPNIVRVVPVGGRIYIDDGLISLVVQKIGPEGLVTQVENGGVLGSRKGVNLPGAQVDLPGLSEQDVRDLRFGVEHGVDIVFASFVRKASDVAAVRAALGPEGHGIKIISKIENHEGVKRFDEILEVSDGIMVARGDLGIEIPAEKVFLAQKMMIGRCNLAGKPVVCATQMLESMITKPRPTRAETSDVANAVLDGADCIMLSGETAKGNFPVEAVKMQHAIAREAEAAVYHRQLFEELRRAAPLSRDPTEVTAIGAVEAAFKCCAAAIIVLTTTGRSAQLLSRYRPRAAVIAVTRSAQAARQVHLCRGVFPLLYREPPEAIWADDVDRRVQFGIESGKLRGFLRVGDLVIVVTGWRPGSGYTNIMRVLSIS

AC50 [1] [nM]	AUC(0-t) ([2]; 1 mg/kg intravenous injection) [ng·h/mL]	Cmax ([2]; 1 mg/kg intravenous injection) [ng/mL]	Tmax ([2]; 1 mg/kg intravenous injection) [h]	clearance ([2]; 1 mg/kg intravenous injection) [mL/min/kg]	half-life ([2]; 1 mg/kg intravenous injection) [h]	MRT last ([2]; 1 mg/kg intravenous injection) [h]	Vd ([2]; 1 mg/kg intravenous injection) [L/kg]	AUC(0-t) ([2]; 10 mg/kg oral gavage, fasted) [ng·h/mL]	Cmax ([2]; 10 mg/kg oral gavage, fasted) [ng/mL]	Tmax ([2]; 10 mg/kg oral gavage, fasted) [h]	half-life ([2]; 10 mg/kg oral gavage, fasted) [h]	MRT last ([2]; 10 mg/kg oral gavage, fasted) [h]	SMILES
< 100	679	945	0.08	25.1	1.3	0.91	1.5	7880	4230	0.33	1.75	1.89	N#Cc1ccc(S(=O)(=O)N2CC(=C3CN(C(=O)[C@H](CO)c4ccccc4)C3)C2)cc1 [Compound 65, (S)-4-(1'-(3-hydroxy-2-phenylpropionyl)-1',4'-dihydro-2H,2'H-[3,3'-diazetidinylidene]-1(4H)-ylsulfonyl)benzonitrile]
	260	570	0.08	62.9	2.44	1.33	6.3	2010	1440	0.25	2.03	1.71	O=C([C@H](CO)c1ccc(F)cc1F)N1CC(=C2CN(S(=O)(=O)c3ccccn3)C2)C1 [Compound 83, (S)-2-(2,4-difluorophenyl)-3-hydroxy-1-(1'-(pyridin-2-ylsulfonyl)-1',4'-dihydro-2H,2'H-[3,3'-diazetidinylidene]-1(4H)-yl)propan-1-one]
